{
  "source": "patent US6720341B2",
  "about": "“Preventives/remedies for kidney diseases” (Mitsubishi Pharma Corporation, priority 2000, dated 2004)",
  "test_system": "renal interstitial fibrosis model mice",
  "experiment": "Action in renal interstitial fibrosis model mice due to unilateral ureteral ligation",
  "assay_type": "in vivo",
  "protocol": "Unilateral ureteral ligation mice were prepared according to the reported method (Kidney Int. 54, 110-119, (1998)). Male BL6/C3H F1 mice (6-week-old, body weight 25 g-30 g) were anesthetized with pentobarbital and subjected to median incision. Thereafter, left ureter was detached and ligated at two points with silk thread. Two models were prepared, and 10 mg/kg of Y-27632 was orally administered (administration with drinking water) to one group for consecutive days from 2 days prior to the operation. Ten days postoperation, the kidney on the ureter ligation side was removed, fixed with 4% paraformaldehyde and prepared into specimen, for staining, which were subjected to Masson trichrome staining. The level of renal interstitial fibrosis was calculated by image analysis of the area ratio (interstitium cortex area ratio:%) of the portion stained blue (fibrosis) relative to the entire sight. (Results)",
  "data": [
    {"smiles": "C[C@@H](N)[C@H]1CC[C@H](C(=O)Nc2ccncc2)CC1", "note": "[Compound Y-27632, (+)-trans-4-(1-aminoethyl)-1-(4-pyridylcarbamoyl)cyclohexane 2HCl.1H2O]", "values": [
      {"measurement": "level of renal interstitial fibrosis", "setting": "10 mg/kg orally, against non-administration group, p < 0.01 (t-test)", "result": "significantly suppressed"},
      {"measurement": "portion stained blue (fibrosis) in Masson trichrome stained kidney specimen", "setting": "FIG. 1B, Y-27632 administration group, 10 mg/kg orally, ten days postoperation", "result": "scarcely detected"},
      {"measurement": "Area ratio of interstitium cortex (Fibrosis): % (average value ± SD)", "setting": "unilateral ureteral ligation mice, 10 mg/kg orally (with drinking water) from 2 days prior to operation, kidney removed ten days postoperation, Masson trichrome staining, image analysis, n = 4", "result": "7.31 ± 3.11", "unit": "%"}
    ]}
  ]
}
